Reference: US20050261201A1, “Method of reducing C-reactive protein using growth hormone secretagogues” (Rejuvenon Corporation, priority 2004, published 2005)

Test system: human CRP
Experiment: CRP serum levels in CRP transgenic mice (ELISA)
Assay type: in vivo, C57BL/6J congenic CRP transgenic mice that express human CRP
Settings: daily oral gavage for 14 days, serum at Day 15, vs saline vehicle, n=10
Procedure: The experiment was conducted to determine the effect of the growth hormone secretagogue RC-1141 on CRP serum levels. The compound RC-1141 was tested in C57BL/6J congenic CRP transgenic mice that express human CRP.
The establishment of a breeding colony of CRPtg C57BL/6J congenic mice has been described in Szalai, A. et al., “Human C-Reactive Protein is Protective Against Fatal Streptococcus pneumoniae Infection in Transgenic Mice,” J. Immunol. 155:2557-2563 (1995), the entire content of which is hereby incorporated by reference. The breeding colony was established by mating transgenic founder males with normal female C57BL/6J mice. The normal female C57BL/6J mice were obtained from Charles River Laboratories (Boston, Mass.). Transgenic founders were obtained from Dr. Ulrich Ruther (Institut für Molekularbiologie, Medizinische Hochschule, Hannover, Germany), and were descendants of transgenic mice originally described by Ciliberto, G., R. Arcone, E. F. Wagner, U. Rüther, “Inducible and tissue-specific expression of human C-reactive protein in transgenic mice” EMBO J, 6:4017 (1987), the entire content of which is hereby incorporated by reference. […]
CRP serum levels were measured using ELISA. […]
Concentration was determined by the ELISA described above. […]

Q: Which CRP serum levels (5 mg/kg body weight (low dose)) does the source give for `CN(C(=O)/C=C/CC1(N)CCC1)[C@H](Cc1ccc(-c2ccccc2)cc1)C(=O)N(C)[C@H](Cc1ccccc1)C(=O)N1CCC(O)CC1` [RC-1141, (2E)-4-(1-aminocyclobutyl)but-2-enoic acid N-((1R)-1-{N-[(1R)-1-benzyl-2-(4-hydroxypiperidin-1-yl)-2-oxoethyl]-N-methylcarbomoyl}-2-(biphenyl-4-yl)ethyl)-N-methylamide] here?
A: The CRP serum levels was “significant decrease”.

Q: And the CRP serum levels (10 mg/kg body weight (high dose))?
A: Its CRP serum levels is “significant decrease”.
